By Ki is commonly meant the dissociation constant of the complex between target and ligand, obtained from inhibition or displacement.

Experimental findings from publication PMC6835510, “Magnificamide, a β-Defensin-Like Peptide from the Mucus of the Sea Anemone Heteractis magnifica, Is a Strong Inhibitor of Mammalian α-Amylases” (Marine Drugs, 2019) are described below.

Data set [1] has as its target human salivary α-amylase (HSA) (Homo sapiens, UniProt P0DUB6). Nature of the data set: Determination of Ki against human saliva α-amylase (Morrison). To be noted: 37 °C, 50 mM sodium phosphate, 100 mM NaCl, pH 7.0; CNPG3 3.3 mM (KM 3.4 mM), nominal [E] 100 nM; 10 min pre-incubation; 405 nm; Morrison fit, competitive mode assumed; mean ± SE (n = 3); read-out: Ki against HSA. It counts as biochemical. The procedure:
For a quantitative assessment of tight-binding inhibitor potency, Morrison’s method was applied. This method uses the Morrison quadratic equation (Equation (1)) for fitting inhibitor-response data and determining Ki app as a nonlinear regression parameter. (1) υ/υo=1−([E]+[I]+Kiapp)−([E]+[I]+Kiapp)^2−4[E][I]/2[E]o
Kinetic assays were carried out at 37 °C in 50 mM sodium phosphate and 100 mM sodium chloride (pH 7.0). 2-Chloro-4-nitrophenyl-α-maltotrioside (CNPG3) (Sigma Aldrich, St. Louis, MO, USA) was used as the substrate and the optical absorption of the 2-chloro-4-nitrophenol was measured at 405 nm. Reactions were run with final [CNPG3] = 1 mM ([S]/KM = 1.41, KM = 0.71 mM), nominal [E] = 20 nM for PPA, [CNPG3] = 3.3 mM ([S]/KM = 0.97, KM = 3.4 mM), and nominal [E] = 100 nM for HSA to provide sufficient analytical signal. Inhibitor dilution schemes were optimized considering recommendations in [34].
The enzyme was pre-incubated with the inhibitor for 10 minutes before the addition of substrate which launched the reaction. Reactions were monitored on an xMark microplate spectrophotometer (BioRad, USA) in the kinetic mode for 30 min. The initial linear steady state region provided initial rate values for each inhibitor concentration (υ), along with uninhibited rate values (υo). Measurements were run in triplicate. […]

For a further data set, the system named is Shaker IR. Put plainly: Two-electrode voltage-clamp. It counts as cell-based, Drosophila. Particulars: 10 µM; insect channel; Xenopus laevis oocytes; 18–22 °C. From the text:
For the expression of Nav channels (mammalian rNav1.2, rNav1.4, hNav1.5, mNav1.6 and hNav1.8 channels; the insect channel BgNav1 from Blattella germanica; and the auxiliary subunits rβ1, hβ1, and TipE) and Kv channels (mammalian rKv1.1, rKv1.2, hKv1.3, rKv1.4, rKv1.5, rKv1.6, rKv2.1, hKv3.1, rKv4.2, hKv10.1, and hERG; and Drosophila Shaker’s IR) in Xenopus laevis oocytes; the linearized plasmids were transcribed using the T7 or SP6 mMESSAGE-mMACHINE transcription kit (Ambion, Carlsbad, CA, USA). The harvesting of stage V–VI oocytes from anesthetized female Xenopus laevis frog was previously described. Oocytes were injected with 50 nL of cRNA at a concentration of 1 ng/nL using a microinjector (Drummond Scientific, Broomall, PA, USA). The oocytes were incubated in a solution containing 96-mM NaCl, 2-mM KCl, 1.8-mM CaCl2, 2-mM MgCl2, and 5-mM HEPES (pH 7.4), supplemented with 50 mg/L gentamycin sulfate.
Two-electrode voltage-clamp recordings were performed at room temperature (18–22 °C) using a Geneclamp 500 amplifier (Molecular Devices, Downingtown, PA, USA) controlled by a pClamp data acquisition system (Axon Instruments, Union City, CA, USA). Whole cell currents from oocytes were recorded 1–4 days after injection. […] All data were analyzed using pClamp Clampfit 10.0 (Molecular Devices, Downingtown, PA, USA) and Origin 7.5 software (Originlab, Northampton, MA, USA).
(Two-electrode voltage clamp is typically applied to oocytes expressing channels or transporters.)

Bridge positions count the residues as written; N and C are the ends. Ends that are not written are not given here.

human salivary α-amylase (HSA), sequence (P0DUB6 16-511): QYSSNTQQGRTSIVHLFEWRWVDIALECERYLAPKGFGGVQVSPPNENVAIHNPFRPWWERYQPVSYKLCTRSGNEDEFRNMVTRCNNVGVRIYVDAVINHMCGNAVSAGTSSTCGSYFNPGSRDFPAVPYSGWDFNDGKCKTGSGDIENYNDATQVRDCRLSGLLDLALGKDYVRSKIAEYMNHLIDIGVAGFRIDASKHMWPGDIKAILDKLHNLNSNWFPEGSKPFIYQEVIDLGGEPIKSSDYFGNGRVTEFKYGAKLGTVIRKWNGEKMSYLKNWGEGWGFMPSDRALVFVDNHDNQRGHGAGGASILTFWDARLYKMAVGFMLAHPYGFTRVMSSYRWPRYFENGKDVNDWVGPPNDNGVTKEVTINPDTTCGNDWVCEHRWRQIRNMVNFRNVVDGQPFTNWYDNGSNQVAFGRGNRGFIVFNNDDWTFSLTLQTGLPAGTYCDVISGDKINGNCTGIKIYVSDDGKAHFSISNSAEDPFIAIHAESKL

With “SEGTSCYIYHGVYGICKAKCAEDMKAMAGMGVCEGDLCCYKTPW (disulfide 6-38, 16-33, 20-39) [r-magnificamide]”, in data set [1], the inhibitory constant (Ki) came out at 7.7 ± 1.5 nM. In addition, in the data set on Shaker IR, the “Channel modulating activity, Shaker” value is “Not active”.
